In patent US11014934B2, “Antiseptic drug” (AO “TATKHIMFARMPREPARATY”, priority 2017, dated 2021):
Read-outs that look alike come from different tables or passages of the source.

Key:
[1] = Acute toxicity in mice after intragastric administration; format: in vivo; conditions: both sexes, mouse, in vivo, po; Mice CD-1, intragastric administration; read-out: LD50 (95% confidence interval)
Method: The study was performed on mice of the CD-1 (ICR) line (6-8 weeks, weight not less than 18 g) of both sexes. […] Mice administered doses were 3000 mg/kg, 2000 mg/kg, 1000 mg/kg, 500 mg/kg and 50 mg/kg.

clinical staphylococci = experiment: MIC screening, summary for clinical staphylococci; format: cell-based; conditions: range over clinical staphylococci, one strain excepted
Method: (§1) A comparative assessment of the spectrum of antibacterial action was carried out on archival and clinical strains of gram-positive and gram-negative microorganisms in accordance with the [Opredeleniye chuvstvitel'nosti mikroorganizmov k antibakterial'nym preparatam (Metodicheskiye ukazaniya MUK 4.2.1890-04). Utverzhdeny i vvedeny v deystviye Glavnym gosudarstvennym sanitarnym vrachom Rossiyskoy Federatsii G. G. Onishchenko 04.03.2004 g. Determination of the sensitivity of microorganisms to antibacterial drugs (Guidelines MUK 4.2.1890-04). Approved and put into effect by the Chief State Sanitary Doctor of the Russian Federation G. G. Onishchenko on 4 Mar. 2004].
(§2) The value of the minimum inhibitory concentration (MIC) was determined by the method of serial dilutions on Müller-Hinton broth using 96-well sterile plates. […] The growth of cultures was assessed visually, comparing the growth of microorganisms in the presence of test compounds with the growth of culture without them. […] The first lowest concentration of the studied substance (from a series of consecutive dilutions), where bacterial growth is not visually determined, is considered to be the minimum inhibitory concentration (MIC). MIC was determined by the method of serial dilutions in broth with increment=2, so the differences of neighboring dilutions are not considered to be significant. […]

E. coli in the biofilm = experiment: Antibacterial activity against cells immersed in a biofilm matrix (CFU, drop plate); format: cell-based
Method: (§3) To determine the effectiveness of the antibiotic against bacteria in […], bacteria were grown in Basal medium for 3 days at a temperature of 37° C. without swinging to obtain a dense biofilm [A. R Kayumov, Khakimullina E., Sharafutdinov I, Trizna E., Latypova L., Lien Thi, Margulis A., Bogachev M, Kurbangalieva A. Inhibition of biofilm formation in Bacillus subtilis by new halogenated furanoses. J. Antibiotics.—2014.—V. 68.—No 5.—P. 297-301.]. Then the biofilm was washed with a sterile 0.9% NaCl solution and fresh sterile medium was poured. Antiseptics were added to concentrations (1-16)×MBC (minimum bactericidal concentration) and incubated for 24 hours. Then the culture fluid was removed from the wells, washed once with 0.9% NaCl solution to remove non-adherent cells, and cell viability in biofilms was evaluated by counting CFU by Drop plate analysis [B. Herigstad, M Hamilton, J. Heersink How to optimize the drop plate method for enumerating bacteria. J Microbiol Methods.—2001.—V. 44.—P. 121-129]. To do this, the biofilm was mechanically removed from the surface and homogenized in 0.9% NaCl by pipetting and ultrasonic treatment. Then, serial 10-fold dilutions of the bacterial suspension in 0.9% NaCl were prepared, and 5 μI of each suspension were transferred to plates with dense nutrient medium. CFU was counted from drops containing 5-10 colonies.
(§4) The results of the study of antimicrobial activity against cells of the studied strains immersed in the biofilm matrix, in comparison with miramistin and benzalkonium chloride, are presented in FIGS. 1 and 2.

[2] = system: gram-positive microorganisms in the biofilm; experiment: as above; format: cell-based
Method: as §3, §4

[3] = system: S.marcescens in the biofilm; experiment: as above; format: cell-based
Method: as §3, §4

[4] = system: K. pneumonia in the biofilm; experiment: as above; format: cell-based
Method: as §3, §4

all bacterial strains = experiment: MIC screening, summary for all bacterial strains; format: cell-based
Method: as §1, §2

mice = conditions: intragastric administration on mice; literature and safety data sheets; cited from earlier work
[5] = system: Cells of a light cow embryo (LCE); experiment: State of the LCE cell monolayer with the drug without the virus; format: cell-based
Method: Cells of a light cow embryo (LCE) are obtained from the Federal State Budgetary Institution “All-Russian Institute of Experimental Veterinary Medicine”, Moscow. Bovine rhinotracheitis virus (herpes virus family), vaccine strain “TK-A (VIEV)-V2” was obtained from the Federal State Budgetary Institution “All-Russian Institute of Experimental Veterinary Medicine”, Moscow.
The virus was incubated in the presence of compound I in a culture medium at 37° C. for one hour at various concentrations; miramistin and benzalkonium chloride served as control preparations. After incubation of the virus with substances, it was added to the cell culture, which was then incubated at 37° C., 5% CO2 for 72 hours.
Evaluation of the cytopathogenic effect was carried out visually by the state of the cell monolayer as compared with the controls (virus without incubation with the drug, the studied drug concentrations without the virus). The virus titer was calculated using the method of Reed-Muench in the modification of Ashmarin and expressed in Ig TCD50/ml.

| Molecule | LD50 [1] | MIC (clinical staphylococci) | activity in the biofilm compared with comparison antiseptics (E. coli in the biofilm) | higher activity compared to miramistin and benzalkonium chloride ([2]; same decrease of CFU at lower excess of MBC) | activity in the biofilm compared with comparison antiseptics [3] | activity in the biofilm compared with comparison antiseptics [4] | MIC (all bacterial strains; read-out: MIC100) | LD50 (mice) | less active than benzalkonium chloride [2] | MIC (all bacterial strains; all bacterial strains, read-out: MIC89) | destruction of the monolayer, drug without the virus ([5]; 50 μg/ml) | destruction of the monolayer, drug without the virus ([5]; 100 μg/ml) | destruction of the monolayer, drug without the virus ([5]; 150 μg/ml) | destruction of the monolayer, drug without the virus ([5]; 200 μg/ml) |
| --- | --- | --- | --- | --- | --- | --- | --- | --- | --- | --- | --- | --- | --- | --- |
| CCCCCCCCCCCC[N+](C)(C)Cc1cnc(C[N+](C)(C)CCCCCCCCCCCC)c2c1COC(CC)O2 (stereo not drawn) [Compound I, 5,8-(Bis(methylene (N, N-dimethyl-N-dodecylammonium))-2-ethyl-4H-[1,3]dioxino [4,5-c]pyridiniumdichloride] | 1710 mg/kg | 1 to 8 µg/mL | the same activity as miramistine and benzalconium chloride | 2 fold | the same activity as miramistine and benzalconium chloride | the same activity as miramistine and benzalconium chloride | < 64 µg/mL | – | – | – | – | – | – | – |
| alkyldimethyl(phenylmethyl) ammonium chloride [Benzalconium chloride] | – | – | – | – | – | – | – | 150 mg/kg | – | – | – | – | – | – |
| CCCCCCCCCCCCCC(=O)NCCC[N+](C)(C)Cc1ccccc1.O.[Cl-] [Miramistin, benzyldimethyl [3-(myristoylamino)propyl]-ammonium chloride monohydrate] | – | – | – | – | – | – | – | 1000 mg/kg | 2 times | < 64 µg/mL | − (−0-10% destruction of the monolayer) | − (−0-10% destruction of the monolayer) | − (−0-10% destruction of the monolayer) | − (−0-10% destruction of the monolayer) |
